Measured values reported in patent US7989438B2, “Therapeutic compounds” (Istituto di Ricerche di Biologia Molecolare P. Angeletti SpA, priority 2007, dated 2011).
Where two headings read alike, the source gives them in different places.

System: HCV subgenomic replication
Assay: Cell based HCV replication assay (subgenomic replicon in Huh-7 cells, NS3 Cell-ELISA)
Conditions: Table A, activity ranges, Huh-7 replicon cells, 96 hours, read-out: IC50 (nM), Inhibition of HCV subgenomic replication
Excerpt: Cell clones that stably maintain subgenomic HCV replicon were obtained by transfecting Huh-7 cells with an RNA replicon identical to I377neo/NS3-3′/wt described by Lohmann et al. (1999) (EMBL-genbank No. AJ242652), followed by selection with neomycin sulfate (G418). Viral replication was monitored by measuring the expression of the NS3 protein by an ELISA assay performed directly on cells grown in 96 wells microtiter plates (Cell-ELISA) using the anti-NS3 monoclonal antibody 10E5/24 (as described in published International application WO 02/59321). Cells were seeded into 96 well plates at a density of 10^4 cells per well in a final volume of 0.1 ml of DMEM/10% FCS. Two hours after plating, 50 μl of DMEM/10% FCS containing a 3× concentration of inhibitor were added, cells were incubated for 96 hours and then fixed for 10 minutes with ice-cold isopropanol. Each condition was tested in duplicate and average absorbance values were used for calculations. The cells were washed twice with PBS, blocked with 5% non-fat dry milk in PBS+0.1% Triton X100+0.02% SDS (PBSTS) and then incubated o/n at 4° C. with the 10E5/24 mab diluted in Milk/PBSTS. After washing 5 times with PBSTS, the cells were incubated for 3 hours at room temperature with Fc specific anti-mouse IgG conjugated to alkaline phosphatase (Sigma), diluted in Milk/PBSTS. After washing again as above, the reaction was developed with p-Nitrophenyl phosphate disodium substrate (Sigma) and the absorbance at 405/620 nm read at intervals. For calculations, we used data sets where samples incubated without inhibitors had absorbance values comprised between 1 and 1.5. The inhibitor concentration that reduced by 50% the expression of NS3 (IC50) was calculated by fitting the data to the Hill equation, Fraction inhibition=1−(Ai−b)/(A0−b)=[I]^n/([I]^n+[…]) where: • Ai=absorbance value of HBI10 cells supplemented with the indicated inhibitor concentration. • A0=absorbance value of HBI10 cells incubated without inhibitor. • b=absorbance value of Huh-7 cells plated at the same density in the same microtiter plates and incubated without inhibitor. • n=Hill coefficient.

With CC(C)N1CCN(C)C2COc3ccccc3-c3c(C4CCCCC4)c4ccc(cc4n3C2)C(=O)NS(=O)(=O)N(C)CC1 [Compound A4, (7R)-14-cyclohexyl-21-isopropyl-18,24-dimethyl-7,8-dihydro-6H-7,11-(epiminoethanoiminoethanoiminothioiminomethano)indolo[1,2-e][1,5]benzoxazocin-15-one 17,17-dioxide] as the compound, how does the IC50 read?
The IC50 was under 25 nM.

Which IC50 does the source give for CN1CCN(C)[C@H]2COc3ccccc3-c3c(C4CCCCC4)c4ccc(cc4n3C2)C(=O)NS(=O)(=O)N(CC2CC2)CC1 [Compound A5, (7R)-14-cyclohexyl-18-(cyclopropylmethyl)-21,24-dimethyl-7,8-dihydro-6H-7,11-(epiminoethanoiminoethanoiminothioiminomethano)indolo[1,2-e][1,5]benzoxazocin-15-one 17,17-dioxide] here?
Its IC50 is under 25 nM.

How did the IC50 (Hepatitis C virus) turn out when CN1CCN2CCN(CC2)S(=O)(=O)NC(=O)c2ccc3c(C4CCCCC4)c4n(c3c2)C[C@@H]1COc1ccccc1-4 [Compound A6, (20R)-30-cyclohexyl-21-methyl-18-oxa-2-thia-1,3,10,21,24-pentaazahexacyclo[22.2.2.1^5,9.1^8,11.1^10,20.0^12,17]hentriaconta-5(31),6,8,11(30),12,14,16-heptaen-4-one 2,2-dioxide] was run?
Its IC50 is 25 to 150 nM.

Which IC50 does the source give for CN1CCOC2COc3ccccc3-c3c(C4CCCCC4)c4ccc(cc4n3C2)C(=O)NS(=O)(=O)N(C)CC1 [Compound A7, (7S)-14-cyclohexyl-18,21-dimethyl-7,8-dihydro-6H-7,11-(epoxyethanoiminoethanoiminothioiminomethano)indolo[1,2-e][1,5]benzoxazocin-15-one 17,17-dioxide] here?
Its IC50 is 25 to 150 nM.

How did the IC50 turn out when CN1CCN(C)C2COc3cc(OCc4ccccn4)ccc3-c3c(C4CCCCC4)c4ccc(cc4n3C2)C(=O)NS(=O)(=O)N(C)CC1 [Compound A8, (7R)-14-cyclohexyl-18,21,24-trimethyl-3-(pyridin-2-ylmethoxy)-7,8-dihydro-6H-7,11-(epiminoethanoiminoethanoiminothioiminomethano)indolo[1,2-e][1,5]benzoxazocin-15-one 17,17-dioxide] was run?
The IC50 was under 25 nM.

With CN1CCN(C)CC2Cn3c(c(C4CCCCC4)c4ccc(cc43)C(=O)NS(=O)(=O)N(C)CC1)-c1ccccc1N2C (stereo not shown) [Compound A9, 13-cyclohexyl-5,17,20,23-tetramethyl-6,7-dihydro-5H-10,6-(methanoiminothioiminoethanoiminoethanoiminomethano)indolo[1,2-d][1,4]benzodiazepin-14-one 16,16-dioxide] as the compound, how does the IC50 read?
The IC50 was 25 to 150 nM.

Which IC50 does the source give for COc1ccc2c(c1)CC1CCN(C)CCN(C)S(=O)(=O)NC(=O)c3ccc4c(C5CCCCC5)c-2n(c4c3)C1 (stereo not shown) [Compound A10, 13-cyclohexyl-3-methoxy-17,20-dimethyl-6,7-dihydro-5H-6,10-(ethanoiminoethanoiminothioiminomethano)indolo[2,1-a][2]benzazepin-14-one 16,16-dioxide] here?
Its IC50 is 25 to 150 nM.

With CN1CCN(C)C2COc3cc(F)ccc3-c3c(C4CCCCC4)c4ccc(cc4n3C2)C(=O)NS(=O)(=O)N(C)CC1 [Compound A11, (7R)-14-cyclohexyl-3-fluoro-18,21,24-trimethyl-7,8-dihydro-6H-7,11-(epiminoethanoiminoethanoiminothioiminomethano)indolo[1,2-e][1,5]benzoxazocin-15-one 17,17-dioxide] as the compound, how does the IC50 read?
The IC50 was under 25 nM.

For CCN1CCN(CCN(C)C)C2COc3cc(F)ccc3-c3c(C4CCCCC4)c4ccc(cc4n3C2)C(=O)NS(=O)(=O)N(C)CC1 [Compound A12, (7R)-14-cyclohexyl-24-[2-(dimethylamino)ethyl]-21-ethyl-3-fluoro-18-methyl-7,8-dihydro-6H-7,11-(epiminoethanoiminoethanoiminothioiminomethano)-indolo[1,2-e][1,5]benzoxazocin-15-one 17,17-dioxide], which IC50 is on record?
The IC50 was under 25 nM.

Which IC50 does the source give for CN1CCNCCN(C)S(=O)(=O)NC(=O)c2ccc3c(C4CCCCC4)c4n(c3c2)CC1COc1ccccc1-4 [Compound A15, (7S)-14-cyclohexyl-18,24-dimethyl-7,8-dihydro-6H-7,11-(epiminoethanoiminoethanoiminothioiminomethano)indolo[1,2-e][1,5]benzoxazocin-15-one 17,17-dioxide] here?
Its IC50 is 150 to 500 nM.
